Legend:
[1] = tested on: recombinant human anti-SARS-CoV antibody 03-018; assay type: binding; design: Binding of antibody 03-018 to linear peptides of the N protein of SARS-CoV Urbani / Binding of antibody 03-018 to looped/cyclic peptides of the N protein of SARS-CoV Urbani: unit not given here
[2] = tested on: control sera (pooled serum of ten healthy LUMC hospital workers; commercial negative donor pooled serum from the Dutch bloodbank); assay type: binding, human; design: Binding of Control serum LUMC to linear peptides / Binding of Control serum Blood-bank to linear peptides / Binding of Control serum LUMC to looped peptides / Binding of Control Serum Blood-Bank to Looped peptides / Binding of Control serum LUMC to linear peptides of the protein M of SARS-CoV Urbani / Binding of Control serum Blood-bank to linear peptides of the protein M of SARS-CoV Urbani / Binding of Control serum LUMC to looped peptides of the protein M of SARS-CoV Urbani / Binding of Control Serum Blood-Bank to Looped peptides of the protein M of SARS-CoV Urbani: unit not given here
[3] = tested on: rabbit serum obtained by immunizing a rabbit with the SARS-CoV strain Frankfurt 1; assay type: binding; design: Binding of a rabbit serum to linear peptides / Binding of a rabbit serum to looped peptides / Rabbit serum linear peptides / Rabbit serum looped peptides / Binding of a rabbit serum to linear peptides of protein N of SARS-CoV Urbani (Rabbit serum linear peptides) / Binding of a rabbit serum to looped/cyclic peptides of protein N of SARS-CoV Urbani (Rabbit serum looped peptides): unit not given here
[4] = tested on: antibodies in sera from SARS patients (sera 1a, 1b, 2, 6, 37, 62, London, SARS-yellow, SARS-green); assay type: binding, human; design: Binding of serum 6 to linear peptides of protein X1 of SARS-CoV Urbani / Binding of serum 37 to linear peptides of protein X1 of SARS-CoV Urbani / Binding of serum 6 to looped/cyclic peptide (PEPSCAN-ELISA) / Binding of serum 37 to looped/cyclic peptide (PEPSCAN-ELISA) / Binding of serum 37 to looped/cyclic peptides of protein X1 of SARS-CoV Urbani / Binding of serum 6 to linear peptides of protein X2 / Binding of serum 37 to linear peptides of protein X2 / Binding of serum 37 to looped/cyclic peptides of protein X2 of SARS-CoV Urbani / Binding of serum 6 to linear peptides of protein M of SARS-CoV Urbani / Binding of serum 37 to linear peptides of protein M of SARS-CoV Urbani / Binding of serum 6 to looped/cyclic peptides of protein M of SARS-CoV Urbani / Binding of serum 37 to looped/cyclic peptides of protein M of SARS-CoV Urbani / Binding of serum 6 to linear peptides of protein X3 of SARS-CoV Urbani / Binding of serum 37 to linear peptides of protein X3 of SARS-CoV Urbani / Binding of serum 37 to looped/cyclic peptides of protein X3 of SARS-CoV Urbani / Binding of serum 6 to linear peptides of protein X4 of SARS-CoV Urbani / Binding of serum 37 to linear peptides of protein X4 of SARS-CoV Urbani / Binding of serum 37 to looped/cyclic peptides of protein X4 of SARS-CoV Urbani / Binding of serum 6 to linear peptides of protein X5 of SARS-CoV Urbani / Binding of serum 37 to linear peptides of protein X5 of SARS-CoV Urbani / Binding of serum 37 to looped/cyclic peptides of protein X5 of SARS-CoV Urbani / Binding of serum 6 to linear peptides of protein N of SARS-CoV Urbani / Binding of serum 37 to linear peptides of protein N of SARS-CoV Urbani / Binding of serum 6 to linear peptide (PEPSCAN-ELISA) / Binding of serum 1a to looped/cyclic peptides of protein N of SARS-CoV Urbani / Binding of serum 1b to looped/cyclic peptides of protein N of SARS-CoV Urbani / Binding of serum 2 to looped/cyclic peptides of protein N of SARS-CoV Urbani / Binding of serum 6 to looped/cyclic peptides of protein N of SARS-CoV Urbani / Binding of serum 37 to looped/cyclic peptides of protein N of SARS-CoV Urbani / Binding of serum 62 to looped/cyclic peptides of protein N of SARS-CoV Urbani / Binding of serum London to looped/cyclic peptides of protein N of SARS-CoV Urbani / Binding of serum SARS-green to looped/cyclic peptides of protein N of SARS-CoV Urbani: unit not given here

Row | Sequence | Binding of Control Serum Blood-Bank to Looped peptides [2] | Binding of Control serum Blood-bank to linear peptides [2] | Binding of Control serum LUMC to linear peptides [2] | Binding of Control serum LUMC to looped peptides [2] | Binding of a rabbit serum to linear peptides of protein N of SARS-CoV Urbani (Rabbit serum linear peptides) [3] | Binding of a rabbit serum to looped/cyclic peptides of protein N of SARS-CoV Urbani (Rabbit serum looped peptides) [3] | Binding of serum 1a to linear peptides of protein N of SARS-CoV Urbani [4] | Binding of serum 1a to looped/cyclic peptides of protein N of SARS-CoV Urbani [4] | Binding of serum 1b to linear peptides of protein N of SARS-CoV Urbani [4] | Binding of serum 1b to looped/cyclic peptides of protein N of SARS-CoV Urbani [4] | Binding of serum 2 to linear peptides of protein N of SARS-CoV Urbani [4] | Binding of serum 2 to looped/cyclic peptides of protein N of SARS-CoV Urbani [4] | Binding of serum 6 to looped/cyclic peptides of protein N of SARS-CoV Urbani [4] | Binding of serum 37 to looped/cyclic peptides of protein N of SARS-CoV Urbani [4] | Binding of serum 62 to looped/cyclic peptides of protein N of SARS-CoV Urbani [4] | Binding of serum London to looped/cyclic peptides of protein N of SARS-CoV Urbani [4] | Binding of serum SARS-green to looped/cyclic peptides of protein N of SARS-CoV Urbani [4] | Binding of serum SARS-yellow to looped/cyclic peptides of protein N of SARS-CoV Urbani [4] | Binding of antibody 03-018 to linear peptides of the N protein of SARS-CoV Urbani [1] | Binding of antibody 03-018 to looped/cyclic peptides of the N protein of SARS-CoV Urbani [1] | further results
1 | SAPRITFGGPTDSTD | 0.5 | 0.4 | 0.5 | 0.4 | 0.2 | 0.5 | 0.2 | 0.3 | 0.2 | 0.2 | 0.1 | 0.2 | 0.1 | 0.5 | 0.3 | 0.3 | 0.9 | 0.4 |  |  | Recognition of the peptide by antibody 03-018 [1]: recognized; Binding of serum 6 to linear peptides of protein N of SARS-CoV Urbani [4]: 0.1; Binding of serum 37 to linear peptides of protein N of SARS-CoV Urbani [4]: 0.7; Binding of serum 62 to linear peptides of protein N of SARS-CoV Urbani [4]: 0.6; Binding of serum London to linear peptides of protein N of SARS-CoV Urbani [4]: 0.5; Binding of serum SARS-green to linear peptides of protein N of SARS-CoV Urbani [4]: 0.6; Binding of serum SARS-yellow to linear peptides of protein N of SARS-CoV Urbani [4]: 0.4
2 | SASAFFGMSRIGMEV |  |  |  |  | 0.1 | 0.6 | 0.3 | 0.5 | 0.2 | 0.3 | 0.2 | 0.6 | 0.5 | 0.8 | 0.6 | 1.6 | 0.4 | 0.9 | 0.1 | 0.2 | Control Serum Blood-Bank Looped peptides [2]: 0.7; Control serum Blood-bank linear peptides [2]: 0.7; Control serum LUMC linear peptides [2]: 0.6; Control serum LUMC looped peptides [2]: 0.7; Binding of serum 6 to linear peptides of protein N of SARS-CoV Urbani [4]: 0.2; Binding of serum 37 to linear peptides of protein N of SARS-CoV Urbani [4]: 0.7; Binding of serum 62 to linear peptides of protein N of SARS-CoV Urbani [4]: 0.6; Binding of serum London to linear peptides of protein N of SARS-CoV Urbani [4]: 0.5; Binding of serum SARS-green to linear peptides of protein N of SARS-CoV Urbani [4]: 0.4; Binding of serum SARS-yellow to linear peptides of protein N of SARS-CoV Urbani [4]: 0.7
3 | SKKPRQKRTATKQYN | 0.6 | 0.8 | 0.7 | 0.5 | 0.2 | 0.1 |  | 0.3 |  | 0.1 |  | 0.4 | 0.3 | 0.6 | 0.6 | 0.5 | 0.1 | 0.3 | 0.1 | 0.2 | Binding of serum 1a to linear peptide (PEPSCAN-ELISA) [4]: 0.2; Binding of serum 1b to linear peptide (PEPSCAN-ELISA) [4]: 0.1; Binding of serum 2 to linear peptide (PEPSCAN-ELISA) [4]: 0.3; Binding of serum 6 to linear peptide (PEPSCAN-ELISA) [4]: 0.2; Binding of serum 37 to linear peptide (PEPSCAN-ELISA) [4]: 0.6; Binding of serum 62 to linear peptide (PEPSCAN-ELISA) [4]: 0.7; Binding of serum London to linear peptide (PEPSCAN-ELISA) [4]: 0.5; Binding of serum SARS-green to linear peptide (PEPSCAN-ELISA) [4]: 0.1; Binding of serum SARS-yellow to linear peptide (PEPSCAN-ELISA) [4]: 0.4
4 | SQASSRSSSRSRGNS | 0.6 | 0.7 | 0.7 | 0.6 | 0.1 | 0.6 |  | 0.3 |  | 0.2 |  | 0.3 | 0.2 | 0.5 | 0.4 | 0.4 | 0.0 | 0.3 | 0.1 | 0.2 | Binding of serum 1a to linear peptide (PEPSCAN-ELISA) [4]: 0.2; Binding of serum 1b to linear peptide (PEPSCAN-ELISA) [4]: 0.1; Binding of serum 2 to linear peptide (PEPSCAN-ELISA) [4]: 0.2; Binding of serum 6 to linear peptide (PEPSCAN-ELISA) [4]: 0.4; Binding of serum 37 to linear peptide (PEPSCAN-ELISA) [4]: 0.6; Binding of serum 62 to linear peptide (PEPSCAN-ELISA) [4]: 0.6; Binding of serum London to linear peptide (PEPSCAN-ELISA) [4]: 0.4; Binding of serum SARS-green to linear peptide (PEPSCAN-ELISA) [4]: 0.2; Binding of serum SARS-yellow to linear peptide (PEPSCAN-ELISA) [4]: 0.6

— patent publication US20070128217A1 (priority 2003, published 2007)
